Test results: PMC8800111 (The Journal of Biological Chemistry, 2021)

How the values were obtained:
Type in all cases: cell-based
[1] = biological target: proteins of U3A human fibrosarcoma cells (4462 proteins detected) (Homo sapiens, UniProt O95372); details: protein LYPLA2; soluble abundance after heat, U3A cells
[2] = biological target: proteins of U3A human fibrosarcoma cells (4462 proteins detected) (Homo sapiens, UniProt O95983); details: protein MBD3; U3A cells
[3] = biological target: proteins of U3A human fibrosarcoma cells (4462 proteins detected) (Homo sapiens, UniProt P49840); details: protein GSK3A; U3A cells
[4] = biological target: proteins of U3A human fibrosarcoma cells (4462 proteins detected) (Homo sapiens, UniProt P09972); details: protein ALDOC, U3A cells
[5] = biological target: proteins of U3A human fibrosarcoma cells (4462 proteins detected) (Homo sapiens, UniProt P27816); details: protein MAP4, U3A cells
[6] = biological target: proteins of U3A human fibrosarcoma cells (4462 proteins detected) (Homo sapiens, UniProt Q6P3W7); details: protein SCYL2, U3A cells
[7] = biological target: proteins of U3A human fibrosarcoma cells (4462 proteins detected) (Homo sapiens, UniProt Q9UN37); details: protein VPS4A; U3A cells
[8] = biological target: proteins of U3A human fibrosarcoma cells (4462 proteins detected) (Homo sapiens, UniProt Q13217); details: protein DNAJC3; soluble abundance after heat, U3A cells
[9] = biological target: proteins of U3A human fibrosarcoma cells (4462 proteins detected) (Homo sapiens, UniProt O15294); details: protein OGT; U3A cells
[10] = biological target: proteins of U3A human fibrosarcoma cells (4462 proteins detected) (Homo sapiens, UniProt Q8N163); details: protein CCAR2; U3A cells
[11] = biological target: proteins of U3A human fibrosarcoma cells (4462 proteins detected) (Homo sapiens, UniProt Q15366); details: protein PCBP2; U3A cells
[12] = biological target: proteins of U3A human fibrosarcoma cells (4462 proteins detected) (Homo sapiens, UniProt Q53H96); details: protein PYCRL; U3A, 10 μM, 2 h
[13] = biological target: proteins of U3A human fibrosarcoma cells (4462 proteins detected) (Homo sapiens, UniProt P38919); details: protein EIF4A3; soluble abundance after heat, U3A cells
[14] = biological target: proteins of U3A human fibrosarcoma cells (4462 proteins detected) (Homo sapiens, UniProt Q6SPF0); details: protein SAMD1; soluble abundance after heat, U3A cells
[15] = biological target: proteins of U3A human fibrosarcoma cells (4462 proteins detected) (Homo sapiens, UniProt Q15043); details: protein SLC39A14; soluble abundance after heat, U3A cells
[16] = biological target: proteins of U3A human fibrosarcoma cells (4462 proteins detected) (Homo sapiens, UniProt P78347); details: protein GTF2I; U3A cells
[17] = biological target: proteins of U3A human fibrosarcoma cells (4462 proteins detected) (Homo sapiens, UniProt Q12979); details: protein ABR; U3A cells
[18] = biological target: proteins of U3A human fibrosarcoma cells (4462 proteins detected) (Homo sapiens, UniProt Q9BSJ8); details: protein ESYT1; U3A cells
[19] = biological target: proteins of U3A human fibrosarcoma cells (4462 proteins detected) (Homo sapiens, UniProt Q8NI22); details: protein MCFD2, U3A cells
[20] = biological target: proteins of U3A human fibrosarcoma cells (4462 proteins detected) (Homo sapiens, UniProt P05556); details: protein ITGB1; U3A cells
[21] = biological target: proteins of U3A human fibrosarcoma cells (4462 proteins detected) (Homo sapiens, UniProt O75116); details: protein ROCK2; U3A cells
[22] = biological target: proteins of U3A human fibrosarcoma cells (4462 proteins detected) (Homo sapiens, UniProt Q9H832); details: protein UBE2Z; U3A, 10 μM, 2 h
[23] = biological target: proteins of U3A human fibrosarcoma cells (4462 proteins detected) (Homo sapiens, UniProt Q9HAU0); details: protein PLEKHA5, U3A cells
[24] = biological target: proteins of U3A human fibrosarcoma cells (4462 proteins detected) (Homo sapiens, UniProt P05023); details: protein ATP1A1; U3A, 10 μM, 2 h
[25] = biological target: proteins of U3A human fibrosarcoma cells (4462 proteins detected) (Homo sapiens, UniProt Q92973); details: protein TNPO1; U3A cells
[26] = biological target: proteins of U3A human fibrosarcoma cells (4462 proteins detected) (Homo sapiens, UniProt O15066); details: protein KIF3B; U3A cells
[27] = biological target: proteins of U3A human fibrosarcoma cells (4462 proteins detected) (Homo sapiens, UniProt Q13620); details: protein CUL4B; U3A cells
[28] = biological target: proteins of U3A human fibrosarcoma cells (4462 proteins detected) (Homo sapiens, UniProt Q9P000); details: protein COMMD9; U3A cells
[29] = biological target: proteins of U3A human fibrosarcoma cells (4462 proteins detected) (Homo sapiens, UniProt P61289); details: protein PSME3; U3A cells
[30] = biological target: proteins of U3A human fibrosarcoma cells (4462 proteins detected) (Homo sapiens, UniProt P49915); details: protein GMPS; soluble abundance after heat, U3A cells

proteins of U3A human fibrosarcoma cells (4462 proteins detected) (Homo sapiens, UniProt O95983), sequence (O95983 whole entry): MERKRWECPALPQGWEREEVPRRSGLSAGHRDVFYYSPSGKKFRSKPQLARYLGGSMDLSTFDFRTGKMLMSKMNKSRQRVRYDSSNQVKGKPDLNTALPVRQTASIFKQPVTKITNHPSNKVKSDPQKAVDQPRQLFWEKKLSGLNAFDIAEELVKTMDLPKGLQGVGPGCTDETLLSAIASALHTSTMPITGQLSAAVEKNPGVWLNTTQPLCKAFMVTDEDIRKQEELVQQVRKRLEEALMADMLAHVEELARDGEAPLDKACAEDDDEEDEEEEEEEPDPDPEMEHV
proteins of U3A human fibrosarcoma cells (4462 proteins detected) (Homo sapiens, UniProt O15066), sequence (O15066 whole entry): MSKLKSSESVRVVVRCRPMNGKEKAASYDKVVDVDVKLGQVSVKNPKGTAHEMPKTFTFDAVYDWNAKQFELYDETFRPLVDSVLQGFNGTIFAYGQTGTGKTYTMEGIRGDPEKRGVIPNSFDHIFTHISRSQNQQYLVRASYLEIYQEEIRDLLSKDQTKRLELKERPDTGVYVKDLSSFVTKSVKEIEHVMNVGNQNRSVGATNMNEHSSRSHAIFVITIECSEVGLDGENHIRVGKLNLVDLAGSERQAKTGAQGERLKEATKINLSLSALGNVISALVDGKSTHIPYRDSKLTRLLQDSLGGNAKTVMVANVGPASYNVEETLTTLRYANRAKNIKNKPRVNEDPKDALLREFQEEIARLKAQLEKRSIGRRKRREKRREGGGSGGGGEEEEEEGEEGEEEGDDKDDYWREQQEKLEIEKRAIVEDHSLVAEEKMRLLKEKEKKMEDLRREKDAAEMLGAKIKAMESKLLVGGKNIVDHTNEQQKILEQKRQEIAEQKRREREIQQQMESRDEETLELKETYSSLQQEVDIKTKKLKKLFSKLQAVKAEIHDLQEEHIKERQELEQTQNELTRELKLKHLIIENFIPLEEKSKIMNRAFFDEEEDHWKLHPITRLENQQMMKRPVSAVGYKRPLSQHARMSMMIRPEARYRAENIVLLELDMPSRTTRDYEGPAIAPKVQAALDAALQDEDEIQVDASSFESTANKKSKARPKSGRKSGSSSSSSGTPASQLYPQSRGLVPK
proteins of U3A human fibrosarcoma cells (4462 proteins detected) (Homo sapiens, UniProt P05556), sequence (P05556 21-798): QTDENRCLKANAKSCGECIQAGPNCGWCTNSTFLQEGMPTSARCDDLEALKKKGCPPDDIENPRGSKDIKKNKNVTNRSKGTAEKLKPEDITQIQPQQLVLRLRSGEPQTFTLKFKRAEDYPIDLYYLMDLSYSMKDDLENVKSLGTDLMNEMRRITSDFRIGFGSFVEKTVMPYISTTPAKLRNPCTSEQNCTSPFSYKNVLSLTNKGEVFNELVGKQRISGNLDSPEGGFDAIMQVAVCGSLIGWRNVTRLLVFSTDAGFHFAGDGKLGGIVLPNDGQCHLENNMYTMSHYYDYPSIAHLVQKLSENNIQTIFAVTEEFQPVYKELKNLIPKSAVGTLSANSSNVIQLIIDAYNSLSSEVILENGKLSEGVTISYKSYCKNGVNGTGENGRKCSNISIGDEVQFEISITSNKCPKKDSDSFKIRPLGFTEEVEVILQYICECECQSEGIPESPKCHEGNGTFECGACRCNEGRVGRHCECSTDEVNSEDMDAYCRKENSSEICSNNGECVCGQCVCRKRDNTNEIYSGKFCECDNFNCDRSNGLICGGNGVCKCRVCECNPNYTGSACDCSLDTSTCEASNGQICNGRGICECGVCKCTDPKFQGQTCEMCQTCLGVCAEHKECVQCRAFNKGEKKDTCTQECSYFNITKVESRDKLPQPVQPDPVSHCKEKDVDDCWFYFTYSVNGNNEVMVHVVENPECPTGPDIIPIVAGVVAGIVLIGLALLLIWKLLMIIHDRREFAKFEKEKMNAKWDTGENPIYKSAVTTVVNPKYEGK
proteins of U3A human fibrosarcoma cells (4462 proteins detected) (Homo sapiens, UniProt Q15366), sequence (Q15366 whole entry): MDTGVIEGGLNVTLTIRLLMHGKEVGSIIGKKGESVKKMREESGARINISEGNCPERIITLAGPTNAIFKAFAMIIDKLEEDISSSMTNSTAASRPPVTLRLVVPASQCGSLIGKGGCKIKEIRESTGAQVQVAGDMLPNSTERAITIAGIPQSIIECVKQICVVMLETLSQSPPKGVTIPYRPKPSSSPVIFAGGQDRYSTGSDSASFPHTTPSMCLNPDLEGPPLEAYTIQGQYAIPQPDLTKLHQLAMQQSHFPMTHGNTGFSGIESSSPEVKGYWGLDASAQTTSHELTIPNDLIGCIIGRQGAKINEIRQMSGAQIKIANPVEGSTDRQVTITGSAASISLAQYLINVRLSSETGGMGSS
proteins of U3A human fibrosarcoma cells (4462 proteins detected) (Homo sapiens, UniProt Q8NI22), sequence (Q8NI22 27-146): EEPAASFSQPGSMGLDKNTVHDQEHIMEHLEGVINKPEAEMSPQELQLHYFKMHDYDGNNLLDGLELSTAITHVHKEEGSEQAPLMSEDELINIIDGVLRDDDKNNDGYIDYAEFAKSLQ
proteins of U3A human fibrosarcoma cells (4462 proteins detected) (Homo sapiens, UniProt P38919), sequence (P38919 whole entry): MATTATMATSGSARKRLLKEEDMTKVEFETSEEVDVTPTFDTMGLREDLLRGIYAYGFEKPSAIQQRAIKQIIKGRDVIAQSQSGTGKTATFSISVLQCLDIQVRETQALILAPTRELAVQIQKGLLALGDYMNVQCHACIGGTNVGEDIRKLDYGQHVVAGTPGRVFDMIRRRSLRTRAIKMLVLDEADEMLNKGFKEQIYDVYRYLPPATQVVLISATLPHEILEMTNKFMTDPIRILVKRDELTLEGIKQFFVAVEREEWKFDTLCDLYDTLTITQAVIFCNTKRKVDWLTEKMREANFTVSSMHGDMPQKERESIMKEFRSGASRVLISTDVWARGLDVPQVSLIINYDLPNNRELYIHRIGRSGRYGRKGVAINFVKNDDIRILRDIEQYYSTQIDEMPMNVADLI
proteins of U3A human fibrosarcoma cells (4462 proteins detected) (Homo sapiens, UniProt P09972), sequence (P09972 whole entry): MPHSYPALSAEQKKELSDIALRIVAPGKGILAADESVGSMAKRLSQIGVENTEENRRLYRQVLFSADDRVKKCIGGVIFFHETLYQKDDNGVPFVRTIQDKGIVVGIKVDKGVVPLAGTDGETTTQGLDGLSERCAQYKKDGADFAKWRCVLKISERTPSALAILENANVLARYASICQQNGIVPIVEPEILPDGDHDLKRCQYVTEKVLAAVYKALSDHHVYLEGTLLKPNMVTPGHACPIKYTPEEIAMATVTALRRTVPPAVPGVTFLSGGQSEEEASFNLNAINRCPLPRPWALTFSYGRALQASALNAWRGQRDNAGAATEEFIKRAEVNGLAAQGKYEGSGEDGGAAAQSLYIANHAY
proteins of U3A human fibrosarcoma cells (4462 proteins detected) (Homo sapiens, UniProt Q15043), sequence (Q15043 31-492): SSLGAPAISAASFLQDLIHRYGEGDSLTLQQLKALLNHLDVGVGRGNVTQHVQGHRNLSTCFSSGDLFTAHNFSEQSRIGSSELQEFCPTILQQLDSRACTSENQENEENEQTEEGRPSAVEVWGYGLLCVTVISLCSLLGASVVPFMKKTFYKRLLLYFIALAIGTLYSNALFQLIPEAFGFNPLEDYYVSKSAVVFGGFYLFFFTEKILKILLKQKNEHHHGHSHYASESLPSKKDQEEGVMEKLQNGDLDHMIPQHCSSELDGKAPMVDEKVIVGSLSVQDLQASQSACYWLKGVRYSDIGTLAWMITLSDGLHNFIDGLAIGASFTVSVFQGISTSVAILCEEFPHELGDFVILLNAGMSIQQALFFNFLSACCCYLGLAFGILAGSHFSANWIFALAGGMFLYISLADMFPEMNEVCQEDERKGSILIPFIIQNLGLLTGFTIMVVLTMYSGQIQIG
proteins of U3A human fibrosarcoma cells (4462 proteins detected) (Homo sapiens, UniProt Q9HAU0), sequence (Q9HAU0 whole entry): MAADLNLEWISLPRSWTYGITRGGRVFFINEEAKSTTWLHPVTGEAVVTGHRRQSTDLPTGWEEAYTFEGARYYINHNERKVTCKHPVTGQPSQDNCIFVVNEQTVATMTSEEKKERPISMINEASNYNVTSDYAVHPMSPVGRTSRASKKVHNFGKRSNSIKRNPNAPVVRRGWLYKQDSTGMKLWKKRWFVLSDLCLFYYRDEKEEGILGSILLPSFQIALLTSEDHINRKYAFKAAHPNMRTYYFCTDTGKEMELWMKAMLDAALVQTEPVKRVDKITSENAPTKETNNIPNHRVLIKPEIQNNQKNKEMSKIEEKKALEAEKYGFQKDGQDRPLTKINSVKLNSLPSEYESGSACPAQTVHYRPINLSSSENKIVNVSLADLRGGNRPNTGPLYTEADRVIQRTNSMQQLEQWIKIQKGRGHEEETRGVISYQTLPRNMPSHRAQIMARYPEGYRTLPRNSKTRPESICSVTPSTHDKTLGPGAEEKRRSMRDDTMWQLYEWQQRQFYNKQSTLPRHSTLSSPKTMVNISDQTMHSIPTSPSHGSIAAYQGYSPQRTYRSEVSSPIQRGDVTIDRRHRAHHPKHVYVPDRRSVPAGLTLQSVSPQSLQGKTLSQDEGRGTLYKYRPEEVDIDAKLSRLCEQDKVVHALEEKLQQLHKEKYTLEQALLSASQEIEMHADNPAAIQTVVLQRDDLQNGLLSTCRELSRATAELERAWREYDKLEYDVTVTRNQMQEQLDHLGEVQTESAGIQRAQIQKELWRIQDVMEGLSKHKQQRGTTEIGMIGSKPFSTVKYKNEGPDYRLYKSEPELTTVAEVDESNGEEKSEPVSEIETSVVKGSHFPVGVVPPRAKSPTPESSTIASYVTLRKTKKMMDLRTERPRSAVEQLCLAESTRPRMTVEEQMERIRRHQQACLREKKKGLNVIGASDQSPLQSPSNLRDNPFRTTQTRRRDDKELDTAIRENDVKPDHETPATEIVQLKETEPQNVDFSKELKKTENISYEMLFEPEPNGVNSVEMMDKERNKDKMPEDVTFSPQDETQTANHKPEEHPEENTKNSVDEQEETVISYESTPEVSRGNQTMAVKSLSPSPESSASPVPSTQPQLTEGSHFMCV
proteins of U3A human fibrosarcoma cells (4462 proteins detected) (Homo sapiens, UniProt Q9P000), sequence (Q9P000 whole entry): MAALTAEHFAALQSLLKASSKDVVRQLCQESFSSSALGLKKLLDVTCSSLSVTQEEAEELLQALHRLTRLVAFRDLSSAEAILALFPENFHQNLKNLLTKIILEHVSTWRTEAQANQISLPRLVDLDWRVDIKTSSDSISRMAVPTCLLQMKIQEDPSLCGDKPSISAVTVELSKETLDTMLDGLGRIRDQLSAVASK

CCc1nc(N)nc(N)c1-c1ccc(Cl)cc1 [pyrimethamine]
Log2 (PYR/DMSO) [1]: 0.15 | Log2 (PYR/DMSO) [2]: 0.16 | Log2 (PYR/DMSO) [3]: 0.16 | Log2 (PYR/DMSO) [4]: -0.04 | Log2 (PYR/DMSO) [5]: -0.05 | Log2 (PYR/DMSO) [6]: -0.04 | Log2 (PYR/DMSO) [7]: 0.19 | Log2 (PYR/DMSO) [8]: 0.14 | Log2 (PYR/DMSO) [9]: 0.16 | Log2 (PYR/DMSO) [10]: 0.18 | Log2 (PYR/DMSO) [11]: 0.18 | Log2 (PYR/DMSO), PYCRL [12]: -0.15 | Log2 (PYR/DMSO) [13]: 0.15 | Log2 (PYR/DMSO) [14]: 0.15 | Log2 (PYR/DMSO) [15]: 0.14 | Log2 (PYR/DMSO) [16]: 0.23 | Log2 (PYR/DMSO) [17]: 0.18 | Log2 (PYR/DMSO) [18]: 0.20 | Log2 (PYR/DMSO) [19]: -0.05 | Log2 (PYR/DMSO) [20]: 0.16 | Log2 (PYR/DMSO) [21]: 0.17 | Log2 (PYR/DMSO), UBE2Z [22]: 0.25 | Log2 (PYR/DMSO) [23]: -0.05 | Log2 (PYR/DMSO), ATP1A1 [24]: 0.37 | Log2 (PYR/DMSO) [25]: 0.22 | Log2 (PYR/DMSO) [26]: 0.16 | Log2 (PYR/DMSO) [27]: 0.18 | Log2 (PYR/DMSO) [28]: 0.16 | Log2 (PYR/DMSO) [29]: 0.17 | Log2 (PYR/DMSO) [30]: 0.14
